# Test results published in ChEMBL document CHEMBL3272271, “Folate antagonists. 13. 2,4-Diamino-6-](alpha,alpha,alpha-trifluoro-m-tolyl)thio]quinazoline and related 2,4-diamino-6-[(phenyl- and naphthyl)thio]quinazolines, a unique class of antimetabolites with extraordinary antimalarial and antibacterial effects” (J Med Chem, 1978).
# Active and inactive are the calls of the source. The calls are words filed in the database; no cut-off is given here.
# Assays:
# [1] = system: Mus musculus; assay: Toxicity in Plasmodium berghei infected mouse assessed as mortality at 640 mg/kg, sc administered 72 hrs after infection measured after 2 to 5 days; assay type: organism-based; parameters: dose 640 mg/kg, route subcutaneous; conditions: in vivo
# [2] = system: Plasmodium gallinaceum; assay: Antimalarial activity against sporozoite-induced Plasmodium gallinaceum infected in white leghorn chicken assessed as disease cure from parasite infection at 160 mg/kg, sc administered 72 hrs after infection; assay type: functional, organism-based; parameters: dose 160 mg/kg
# [3] = system: Plasmodium berghei; assay: Antimalarial activity against Plasmodium berghei infected in mouse assessed as increase in mean survival days of host at 2.5 mg/kg, sc administered 72 hrs after infection relative to control; assay type: functional; conditions: route subcutaneous
# [4] = system: Plasmodium berghei; assay: Antimalarial activity against Plasmodium berghei infected in mouse assessed as disease cure from parasite infection at 40 mg/kg, sc administered 72 hrs after infection; assay type: functional, organism-based; parameters: dose 40 mg/kg
# [5] = system: Plasmodium berghei; assay: Antimalarial activity against trophozoite-induced Plasmodium berghei infected in mouse assessed as daily dose required to suppression of 90% parasite infection administered with diet for 6 days; assay type: functional
# [6] = system: Plasmodium gallinaceum; assay: Antimalarial activity against sporozoite-induced Plasmodium gallinaceum infected in white leghorn chicken assessed as disease cure from parasite infection at 20 mg/kg, sc administered 72 hrs after infection; assay type: functional, organism-based; parameters: dose 20 mg/kg
# [7] = system: Plasmodium berghei; assay: Antimalarial activity against Plasmodium berghei infected in mouse assessed as disease cure from parasite infection at 80 mg/kg, sc administered 72 hrs after infection; assay type: functional, organism-based; parameters: dose 80 mg/kg
# [8] = system: Plasmodium berghei; assay: Antimalarial activity against Plasmodium berghei infected in mouse assessed as disease cure from parasite infection at 320 mg/kg, sc administered 72 hrs after infection; assay type: functional, organism-based; parameters: dose 320 mg/kg
# [9] = system: Plasmodium berghei; assay: Antimalarial activity against Plasmodium berghei infected in mouse assessed as disease cure from parasite infection at 640 mg/kg, sc administered 72 hrs after infection; assay type: functional, organism-based; parameters: dose 640 mg/kg
# [10] = system: Plasmodium berghei; assay: Antimalarial activity against Plasmodium berghei infected in mouse assessed as increase in mean survival days of host at 1.25 mg/kg, sc administered 72 hrs after infection relative to control; assay type: functional; conditions: route subcutaneous
# [11] = system: Plasmodium berghei; assay: Ratio of quinine hydrochloride SD90 to compound SD90 for trophozoite-induced Plasmodium berghei infected in mouse assessed as daily dose required to suppression of 90% parasite infection administered with diet for 6 days; assay type: functional
# [12] = system: Plasmodium berghei; assay: Antimalarial activity against Plasmodium berghei infected in mouse assessed as increase in mean survival days of host at 20 mg/kg, sc administered 72 hrs after infection relative to control; assay type: functional; conditions: route subcutaneous
# [13] = system: Plasmodium berghei; assay: Antimalarial activity against Plasmodium berghei infected in mouse assessed as disease cure from parasite infection at 160 mg/kg, sc administered 72 hrs after infection; assay type: functional, organism-based; parameters: dose 160 mg/kg
# [14] = system: Plasmodium berghei; assay: Antimalarial activity against Plasmodium berghei infected in mouse assessed as increase in mean survival days of host at 10 mg/kg, sc administered 72 hrs after infection relative to control; assay type: functional; conditions: route subcutaneous
# [15] = system: Gallus gallus; assay: Toxicity in sporozoite-induced Plasmodium gallinaceum infected white leghorn chicken assessed as mortality at 320 mg/kg, sc administered 72 hrs after infection measured up to 6 days; assay type: organism-based; parameters: dose 320 mg/kg, route subcutaneous; conditions: in vivo
# [16] = system: Mus musculus; assay: Toxicity in Plasmodium berghei infected mouse assessed as mortality at 320 mg/kg, sc administered 72 hrs after infection measured after 2 to 5 days; assay type: organism-based; parameters: dose 320 mg/kg, route subcutaneous; conditions: in vivo
# [17] = system: Plasmodium gallinaceum; assay: Antimalarial activity against sporozoite-induced Plasmodium gallinaceum infected in white leghorn chicken assessed as disease cure from parasite infection at 10 mg/kg, sc administered 72 hrs after infection; assay type: functional, organism-based; parameters: dose 10 mg/kg
# [18] = system: Plasmodium gallinaceum; assay: Antimalarial activity against sporozoite-induced Plasmodium gallinaceum infected in white leghorn chicken assessed as disease cure from parasite infection at 40 mg/kg, sc administered 72 hrs after infection; assay type: functional, organism-based; parameters: dose 40 mg/kg
# [19] = system: Plasmodium gallinaceum; assay: Antimalarial activity against sporozoite-induced Plasmodium gallinaceum infected in white leghorn chicken assessed as disease cure from parasite infection at 320 mg/kg, sc administered 72 hrs after infection; assay type: functional, organism-based; parameters: dose 320 mg/kg
# [20] = system: Plasmodium gallinaceum; assay: Antimalarial activity against sporozoite-induced Plasmodium gallinaceum infected in white leghorn chicken assessed as disease cure from parasite infection at 80 mg/kg, sc administered 72 hrs after infection; assay type: functional, organism-based; parameters: dose 80 mg/kg
# [21] = system: Plasmodium berghei; assay: Antimalarial activity against Plasmodium berghei infected in mouse assessed as increase in mean survival days of host at 5 mg/kg, sc administered 72 hrs after infection relative to control; assay type: functional; conditions: route subcutaneous
# [22] = system: Plasmodium gallinaceum; assay: Antimalarial activity against trophozoite-induced Plasmodium gallinaceum infected in white leghorn chicken assessed as increase in mean survival days of host at 5 mg/kg, sc administered 72 hrs after infection relative to control; assay type: functional; conditions: route subcutaneous
# [23] = system: Plasmodium gallinaceum; assay: Antimalarial activity against trophozoite-induced Plasmodium gallinaceum infected in white leghorn chicken assessed as increase in mean survival days of host at 20 mg/kg, sc administered 72 hrs after infection relative to control; assay type: functional; conditions: route subcutaneous
# [24] = system: Plasmodium gallinaceum; assay: Antimalarial activity against sporozoite-induced Plasmodium gallinaceum infected in white leghorn chicken assessed as disease cure from parasite infection at 480 mg/kg, sc administered 72 hrs after infection; assay type: functional, organism-based; parameters: dose 480 mg/kg
# [25] = system: Staphylococcus aureus; assay: Antibacterial activity against Staphylococcus aureus UC-96 by gradient plate test; assay type: functional
# [26] = system: Plasmodium gallinaceum; assay: Antimalarial activity against sporozoite-induced Plasmodium gallinaceum infected in white leghorn chicken assessed as disease cure from parasite infection at 120 mg/kg, sc administered 72 hrs after infection; assay type: functional, organism-based; parameters: dose 120 mg/kg
# [27] = system: Shigella sonnei; assay: Antibacterial activity against Shigella sonnei C-10 by gradient plate test; assay type: functional
# [28] = system: Plasmodium gallinaceum; assay: Antimalarial activity against sporozoite-induced Plasmodium gallinaceum infected in white leghorn chicken assessed as disease cure from parasite infection at 240 mg/kg, sc administered 72 hrs after infection; assay type: functional, organism-based; parameters: dose 240 mg/kg
# [29] = system: Plasmodium gallinaceum; assay: Antimalarial activity against trophozoite-induced Plasmodium gallinaceum infected in white leghorn chicken assessed as increase in mean survival days of host at 2.5 mg/kg, sc administered 72 hrs after infection relative to control; assay type: functional; conditions: route subcutaneous
# [30] = system: Plasmodium berghei; assay: Antimalarial activity against cycloguanil-resistant Plasmodium berghei assessed as drug resistance; assay type: functional, organism-based
# [31] = system: Escherichia coli; assay: Antibacterial activity against Escherichia coli Vogel by gradient plate test; assay type: functional
# [32] = system: Plasmodium gallinaceum; assay: Antimalarial activity against trophozoite-induced Plasmodium gallinaceum infected in white leghorn chicken assessed as increase in mean survival days of host at 40 mg/kg, sc administered 72 hrs after infection relative to control; assay type: functional; conditions: route subcutaneous
# [33] = system: Plasmodium gallinaceum; assay: Antimalarial activity against sporozoite-induced Plasmodium gallinaceum infected in white leghorn chicken assessed as disease cure from parasite infection at 60 mg/kg, sc administered 72 hrs after infection; assay type: functional, organism-based; parameters: dose 60 mg/kg
# [34] = system: Enterococcus faecalis; assay: Antibacterial activity against Streptococcus faecalis MGH-2 by gradient plate test; assay type: functional
# [35] = system: Plasmodium gallinaceum; assay: Antimalarial activity against trophozoite-induced Plasmodium gallinaceum infected in white leghorn chicken assessed as increase in mean survival days of host at 10 mg/kg, sc administered 72 hrs after infection relative to control; assay type: functional; conditions: route subcutaneous
# [36] = system: Plasmodium gallinaceum; assay: Antimalarial activity against trophozoite-induced Plasmodium gallinaceum infected in white leghorn chicken assessed as increase in mean survival days of host at 1.25 mg/kg, sc administered 72 hrs after infection relative to control; assay type: functional; conditions: route subcutaneous
# [37] = system: Plasmodium berghei; assay: Antimalarial activity against Plasmodium berghei infected in mouse assessed as disease cure from parasite infection at 10 mg/kg, sc administered 72 hrs after infection; assay type: functional, organism-based; parameters: dose 10 mg/kg
# [38] = system: Staphylococcus aureus; assay: Antibacterial activity against drug-resistant Staphylococcus aureus S18713 by gradient plate test; assay type: functional
# [39] = system: Pseudomonas aeruginosa; assay: Antibacterial activity against Pseudomonas aeruginosa 28 by gradient plate test; assay type: functional
# [40] = system: Plasmodium gallinaceum; assay: Antimalarial activity against sporozoite-induced Plasmodium gallinaceum infected in white leghorn chicken assessed as disease cure from parasite infection at 7.5 mg/kg, sc administered 72 hrs after infection; assay type: functional, organism-based; parameters: dose 7.5 mg/kg
# [41] = system: Plasmodium berghei; assay: Antimalarial activity against chloroquine-resistant Plasmodium berghei assessed as drug resistance; assay type: functional, organism-based
# [42] = system: Plasmodium gallinaceum; assay: Antimalarial activity against sporozoite-induced Plasmodium gallinaceum infected in white leghorn chicken assessed as disease cure from parasite infection at 15 mg/kg, sc administered 72 hrs after infection; assay type: functional, organism-based; parameters: dose 15 mg/kg
# [43] = system: Plasmodium gallinaceum; assay: Antimalarial activity against sporozoite-induced Plasmodium gallinaceum infected in white leghorn chicken assessed as disease cure from parasite infection at 30 mg/kg, sc administered 72 hrs after infection; assay type: functional, organism-based; parameters: dose 30 mg/kg
# [44] = system: Plasmodium berghei; assay: Antimalarial activity against Plasmodium berghei infected in mouse assessed as disease cure from parasite infection at 20 mg/kg, sc administered 72 hrs after infection; assay type: functional, organism-based; parameters: dose 20 mg/kg
compound,measurement,setting,value
CCc1nc(N)nc(N)c1-c1ccc(Cl)cc1 [PYRIMETHAMINE],Activity,[1],Toxic
same,Activity,[2],Active
same,MST,[3],4.7 days
same,Activity,[4],Active
same,SD90,[5],0.28 mg/kg/day
same,Activity,[6],Active
same,Activity,[7],Active
same,Activity,[8],Active
same,Activity,[9],Active
same,MST,[10],3.1 days
same,Ratio,[11],270
same,MST,[12],7.7 days
same,Activity,[13],Active
same,MST,[14],6.1 days
same,Activity,[15],Toxic
same,Activity,[16],Toxic
same,Activity,[17],Active
same,Activity,[18],Active
same,Activity,[19],Active
same,Activity,[20],Active
same,MST,[21],5.3 days
Nc1nc(N)c2cc(Sc3ccc(Br)cc3)ccc2n1,MST,[22],7.2 days
same,MST,[23],11.8 days
same,Activity,[24],Active
same,MIC,[25],< 0.25 µg/mL
same,MST,[3],3.6 days
same,Activity,[26],Active
same,MIC,[27],2 µg/mL
same,Activity,[4],Active
same,SD90,[5],1.2 mg/kg/day
same,Activity,[28],Active
same,MST,[29],6 days
same,Activity,[7],Active
same,Activity,[30],Active
same,MIC,[31],1 µg/mL
same,Activity,[8],Active
same,MST,[32],12.8 days
same,Activity,[9],Active
same,MST,[10],2.2 days
same,Ratio,[11],62
same,Activity,[33],Active
same,MST,[12],14.4 days
same,MIC,[34],< 0.25 µg/mL
same,MST,[35],8.2 days
same,Activity,[13],Active
same,MST,[36],3 days
same,Activity,[37],Active
same,MST,[14],19.6 days
same,MIC,[38],< 0.25 µg/mL
same,MIC,[39],> 25 µg/mL
same,Activity,[40],Active
same,Activity,[41],inactive
same,Activity,[42],Active
same,MST,[21],6.7 days
same,Activity,[43],Active
same,Activity,[44],Active
